The values below come from paper PMC11596392, “Enhanced Antibacterial, Anti-Inflammatory, and Antibiofilm Activities of Tryptophan-Substituted Peptides Derived from Cecropin A-Melittin Hybrid Peptide BP100” (Molecules, 2024).

Where no end group is shown, it is not given here.

Data set [1] concerns S. aureus (KCTC 1621). It counts as cell-based, Staphylococcus aureus. The note with it: broth microdilution in MHB, 37 °C, 24 h, 100% inhibition of growth. How it is done:
(§1) The antibacterial efficacy of the synthesized peptides was evaluated by determining the minimal inhibitory concentrations (MICs) against six standard bacterial strains and five drug-resistant bacterial strains using the Clinical and Laboratory Standards Institute (CLSI) microdilution method. Melittin served as the positive control.
(§2) The minimal inhibitory concentrations (MICs) of the peptides against bacterial strains were determined using a modified broth-microdilution method in accordance with the National Committee for Clinical Laboratory Standards (NCCLS) guidelines. Overnight cultures were diluted in cation-adjusted Mueller–Hinton Broth (MHB) to achieve an inoculum density of 2 × 10^6 CFU/mL. A two-fold serial dilution of the peptide solution (100 μL) was introduced into microtiter plates, followed by the addition of 100 μL of bacterial suspension. The plates were then incubated at 37 °C for 24 h to determine the MICs. Wells containing only culture media served as negative controls, while those with added bacteria functioned as positive controls. The MIC, expressed in μM, was defined as the lowest peptide concentration that prevented visible bacterial growth. This protocol was also employed to determine MICs in the presence of physiological salts (150 mM of NaCl, 4.5 mM of KCl, 6 μM of NH4Cl, 1 mM of MgCl2, 2.5 mM of CaCl2, and 4 μM of FeCl3) and 20% human serum to assess the peptides’ efficacy under conditions more closely resembling physiological environments. All experiments were conducted in triplicate and repeated three times independently to ensure reproducibility and statistical significance of the results.

Data set [2] has as its system B. subtilis (KCTC 3068). It counts as cell-based, Bacillus subtilis. The note with it: broth microdilution in MHB, 37 °C, 24 h, 100% inhibition of growth. How it is done:
as §1, §2

Data set [3] has as its system MRSA (CCARM 3089). The data set is classed as cell-based, methicillin-resistant Staphylococcus aureus. The note with it: broth microdilution in MHB, 37 °C, 24 h, 100% inhibition of growth. How it is done:
as §1, §2

Data set [4] has as its system MRSA (CCARM 3090). The data set is classed as cell-based, methicillin-resistant Staphylococcus aureus. The note with it: broth microdilution in MHB, 37 °C, 24 h, 100% inhibition of growth. The method, then:
as §1, §2

Data set [5] deals with E. coli (KCTC 1682). The data set is classed as cell-based, Escherichia coli. The following applies: broth microdilution in MHB, 37 °C, 24 h, 100% inhibition of growth. The method, then: as §1, §2
Data set [6] deals with P. aeruginosa (KCTC 1637). It counts as cell-based, Pseudomonas aeruginosa. The note with it: broth microdilution in MHB, 37 °C, 24 h, 100% inhibition of growth. How it is done: as §1, §2
Data set [7] relates to MDRPA (CCARM 2095). It counts as cell-based, multidrug-resistant Pseudomonas aeruginosa. The note with it: broth microdilution in MHB, 37 °C, 24 h, 100% inhibition of growth. The method, then:
as §1, §2

Data set [8] concerns MDRPA (CCARM 2109). It counts as cell-based, multidrug-resistant Pseudomonas aeruginosa. The following applies: broth microdilution in MHB, 37 °C, 24 h, 100% inhibition of growth. The method, then: as §1, §2
In data set [9] the test system is sheep red blood cells (sRBCs). In words: Hemolytic activity assay. It counts as cell-based. The note with it: 4% (v/v) sheep red blood cells in PBS, 1 h, 37 °C; 1 to 256 μM tested. The method, then:
To assess toxicity in mammalian cells, we evaluated the hemolytic activity of the peptides on sheep red blood cells (sRBCs). […] The therapeutic index (TI), a measure commonly employed to evaluate the cell selectivity of antibacterial agents, was calculated as the ratio of the concentration causing 10% hemolysis of sRBCs (HC10) to the GM [19, 20, 21, 22].
The hemolytic activity of the peptides was tested through hemolysis assay of sheep red blood cells (sRBCs). The sRBCs were diluted in PBS to achieve a 4% (v/v) concentration. Subsequently, 100 μL of peptide solutions, ranging from 1 to 256 μM, was dispensed into a 96-well plate containing an equal volume of the erythrocyte suspension. After incubating for 1 h at 37 °C and centrifuging at 1000× g for 10 min, 100 μL of the supernatant was transferred to a new 96-well plate. Hemoglobin release was quantified using a microplate reader at a wavelength of […]. The percentage of hemolysis was calculated using percentage hemolysis = 100 × [[…]], where A represents the absorbance of the peptide-treated sample at 540 nm, A0 corresponds to the absorbance value representing 0% hemolysis in PBS, and At corresponds to the absorbance value representing 100% hemolysis in 0.1% Triton X-100.

Data set [10] has as its system preformed MDRPA (CCARM 2095) biofilms. It counts as cell-based, multidrug-resistant Pseudomonas aeruginosa. The note with it: 24 h treatment; for MBEC50: 50% eradication; for MBEC90: 90% eradication. The method, then: While preventing biofilm formation on surfaces is crucial, treating established biofilm infections presents a significant challenge due to the extracellular polymeric substance (EPS) matrix hindering antibiotic penetration and the high cell density within mature biofilms. To address this challenge, we evaluated the ability of BP100 and its analogs to eradicate established MDRPA biofilms over a 24 h period. The minimum biofilm eradication concentration (MBEC90) was determined using crystal violet staining as the lowest concentration that reduced biomass by more than 90%. Among these peptides, BP5, BP6, BP7, BP8, BP9, BP11, and BP13 eradicated preformed MDRPA biofilms by more than 90% at a concentration of 8 μM (Figure 3c,d and Table 3).
The minimal biofilm eradication concentration (MBEC) for peptides against the multidrug-resistant Pseudomonas aeruginosa (MDRPA) (CCARM 2095) strain was assessed using the Calgary Biofilm Device (CBD), supplied by Innovotech, Edmonton, AB, Canada. A bacterial suspension with a density of (1 × 10^6) CFU/mL in (150 µL) of Luria–Bertani (LB) media was dispensed into each well of a 96-well microtiter plate, which was equipped with a peg lid (Innovotech, product code: 19111). This plate was incubated at 37 °C for 24 h with agitation at 110 rpm, promoting biofilm formation on the pegs. Subsequently, the peg lid was washed with phosphate-buffered saline (PBS, 0.01 M) and relocated to a fresh plate containing varying peptide concentrations (200 µL per well). The biofilms were then subjected to these peptides under the same incubation conditions. After another PBS rinse, the peg lid was moved to a recovery plate filled with (200 µL) of LB media per well. To detach the biofilms from the pegs, the recovery plate underwent sonication in a water bath for 10 to 15 min. Finally, the recovery plate was incubated at 37 °C for 24 h with agitation at 110 rpm, allowing any surviving bacteria to proliferate and cause turbidity. The MBEC is defined as the lowest concentration of peptides that inhibited turbidity formation in the recovery plate in comparison to sterility controls. This experiment was conducted in triplicate, and the median value from each trial was recorded.

KKLFKKWLKYW-NH2 [BP10]: the “Minimal Inhibitory Concentration (MIC)” value in data set [1] came out at 8 µM; in data set [2] it was 16 µM; in data set [3] it was 64 µM; in data set [4] it was 64 µM; in [5] it was 8 µM; in data set [6], 8 µM. Besides, the “Minimal Inhibitory Concentration (MIC)” value in data set [7] and in data set [8] was 16 µM throughout. In addition, in data set [9], the “HC10 (peptide concentration that caused 10% hemolysis)” value was above 256 µM. In data set [10], this substance came in with an MBEC50 of 8 to 16 µM. The MBEC90 in [10] turned out to be 16 µM.
Take KKLFKKWWKWL-NH2 [BP16]: the “Minimal Inhibitory Concentration (MIC)” value stood at 16 µM in data set [1]; 16 µM in [2]; 16 µM in data set [3]; 128 µM in data set [4]; 16 µM in data set [5]; 8 µM in [6]. Moreover, the “Minimal Inhibitory Concentration (MIC)” value in data set [7] and in [8] was 32 µM each time. For the same substance, the “HC10 (peptide concentration that caused 10% hemolysis)” value in data set [9] is above 256 µM. Further, in data set [10], the MBEC50 amounted to 16 µM. In [10], this substance had an MBEC90 of 32 µM.
Regarding KKLFKKWWKYL-NH2 [BP9], the “Minimal Inhibitory Concentration (MIC)” value in data set [1] was 8 µM; in data set [2], 16 µM; in data set [3], 64 µM; in [4], 64 µM; in [5], 4 µM; in [6] it was 16 µM. In addition, the “Minimal Inhibitory Concentration (MIC)” value in data set [7] and in data set [8] was 16 µM in each case. Moreover, the “HC10 (peptide concentration that caused 10% hemolysis)” value in data set [9] is above 256 µM. The same substance showed an MBEC50 in data set [10] of 4 µM. For the same substance, in [10], the MBEC90 was 8 µM.
Regarding KKLWKKILKWL-NH2 [BP8], the “Minimal Inhibitory Concentration (MIC)” value stood at 4 µM in [1]; 8 µM in data set [2]; 16 µM in [3]; 16 µM in data set [4]; 2 µM in data set [5]; 16 µM in data set [6]. Also, the “Minimal Inhibitory Concentration (MIC)” value in [7] came to 8 µM; in data set [8] it was 16 µM. The “HC10 (peptide concentration that caused 10% hemolysis)” value in data set [9] was above 256 µM. This substance also registered an MBEC50 in data set [10] of 2 µM. This substance had an MBEC90 in [10] of 8 µM.
As to KKLWKKIWKYL-NH2 [BP7], the “Minimal Inhibitory Concentration (MIC)” value in data set [1] was 2 µM; in [2], 4 µM; in data set [3], 8 µM; in data set [4], 32 µM; in data set [5], 4 µM; in [6], 8 µM. Moreover, the “Minimal Inhibitory Concentration (MIC)” value in [7] came out at 8 µM; in [8], 4 µM. In data set [9], the “HC10 (peptide concentration that caused 10% hemolysis)” value is above 256 µM. The MBEC50 in data set [10] lay within 4 to 8 µM. Also, the MBEC90 in [10] was determined as 8 µM.
As to KKLWKKIWKYW-NH2 [BP15], the “Minimal Inhibitory Concentration (MIC)” value in data set [1] stood at 2 µM; in data set [2] it was 4 µM; in data set [3] it was 16 µM; in data set [4] it was 64 µM; in data set [5], 4 µM; in [6], 8 µM. The results for the “Minimal Inhibitory Concentration (MIC)” value in data set [7] and in data set [8] were 16 µM and 8 µM, respectively. The “HC10 (peptide concentration that caused 10% hemolysis)” value in [9] is above 256 µM. For the same substance, the MBEC50 in data set [10] was 8 to 16 µM. In data set [10], this substance registered an MBEC90 of 16 µM.
KKLWKKWLKYW-NH2 [BP14]: the “Minimal Inhibitory Concentration (MIC)” value in data set [1] stood at 2 µM; in data set [2], 4 µM; in data set [3], 16 µM; in data set [4], 32 µM; in data set [5], 4 µM; in data set [6], 8 µM. Further, the “Minimal Inhibitory Concentration (MIC)” value in data set [7] came to 16 µM; in [8], 8 µM. Moreover, the “HC10 (peptide concentration that caused 10% hemolysis)” value in data set [9] is above 256 µM. Besides, the MBEC50 in data set [10] is 8 to 16 µM. Further, the MBEC90 in [10] amounted to 16 µM.
Take KKWFKKILKWL-NH2 [BP6]: the “Minimal Inhibitory Concentration (MIC)” value was 2 µM in [1]; 4 µM in data set [2]; 8 µM in data set [3]; 16 µM in [4]; 4 µM in data set [5]; 16 µM in data set [6]. The “Minimal Inhibitory Concentration (MIC)” value was 8 µM in data set [7] and 16 µM in data set [8]. The “HC10 (peptide concentration that caused 10% hemolysis)” value in [9] is above 256 µM. Further, the MBEC50 in data set [10] is 4 µM. Further, the MBEC90 in data set [10] is 8 µM.
For the substance KKWFKKWLKWL-NH2 [BP13], the “Minimal Inhibitory Concentration (MIC)” value turned out to be 4 µM in data set [1]; 8 µM in data set [2]; 32 µM in data set [3]; 32 µM in [4]; 8 µM in data set [5]; 16 µM in data set [6]. For the same substance, the “Minimal Inhibitory Concentration (MIC)” value in [7] was determined as 8 µM; in data set [8] it was 16 µM. The “HC10 (peptide concentration that caused 10% hemolysis)” value in data set [9] is above 256 µM. Further, the MBEC50 in [10] worked out at 4 µM. This substance returned an MBEC90 in [10] of 8 µM.
